Experimental data: US11684614B2, “Formulations of hydroxypyridonate actinide/lanthanide decorporation agents” (priority 2017, dated 2023)
Where “and” joins values, the source holds several entries; their conditions need not be identical. Equal entries are not always repeated.

Assay: Repeated-treatment efficacy for removing an intravenous dose of 238Pu (excretion, tissue retention, clinical observations), female and male arms
Assay type: in vivo, Swiss-Webster mice
Conditions: for % Recovered Dose-Female Animals-Urine per Day-Day 11 Necropsy: animal group H
Protocol: The objective of this study was to characterize the efficacy of 3,4,3-L1(1,2-HOPO) at enhancing elimination from an internal plutonium burden in female and male Swiss-Webster mice administered a soluble citrate complex of ^238Pu and treated multiple times, starting at 24 hours after the exposure. Efficacy was evaluated by comparing the tissue contents, urinary and fecal excretions of ^238Pu in treated animals versus untreated animals.
The medical countermeasure 3,4,3-L1(1,2-HOPO) was administered parenterally (ip) or orally (po) via consecutive injections or gavages (six daily or twelve twice daily) starting at 24 hours post contamination at the following four selected doses: 30 μmol/kg ip, 150 μmol/kg po, 300 μmol/kg po, and 600 μmol/kg po (equivalent to respective approximate human doses range of […], using the accepted conversion system of mouse doses into human equivalent doses—HED—based on body surface area). Oral doses also included the permeability enhancer selected during formulation development work.
• Challenge isotope: ^238Pu • Challenge dose: 25 nCi (i.e., approximately 0.8 μCi/kg) • Route of contamination: Intravenous (iv) tail-vein • Route of treatment: Intraperitoneal Injection (ip) or Oral (po) • Frequency of treatment: Multiple (once- or twice-daily for 6 days) doses, starting 24 hr postcontamination • Treatment dose calculation: Dose calculations (mg/kg or μmol/kg) for the decorporation agent were based on the individual body weight measured after contamination. • Study Duration: 11 days, in-life
c. […] Test article and control dose formulations were prepared within 1 day of dose administration, by weighing out the appropriate amount of test article, dispersing in vehicle. For ip solutions, the test article was used alone, while for oral suspensions, a mixture of test article and excipient (90:10, w:w) was used. The pH was adjusted to 7.0-7.4 for ip administration and 5.0-5.5 for oral administration with sterile NaOH. Dose formulations were prepared at room temperature and filter-sterilized. • Storage: 2-8° C.; refrigerated; protected from light. • Characterization: The concentration of each test article formulation was verified by high-performance liquid chromatography-mass spectrometry. • Test Article Handling: Test, reference, and control article formulations were handled with the use of eye protection, gloves, and a protective laboratory coat. • Correct Dose Assurance: The test article was weighed with calibrated balances. The administration of each dose formulation was properly documented, and the amount administered to each animal recorded.
e. Experimental Procedures (In-Life Evaluations and Euthanasia) • Contamination: Single administration by intravenous (iv) tail-vein injection (0.2 mL injection volume) under isoflurane anesthesia. Three standard 0.2 mL injections were performed into polyethylene bottles and pre-loaded with aliquots of concentrated nitric acid on each injection day. Six female and six male mice were culled for necropsy 1 hr post-contamination and were used as standards. A11 standards were processed and counted together with the final samples to allow verification of the contamination dose. • Dose Administration: Single administration by intraperitoneal injection (ip) or oral gavage (po) under isoflurane anesthesia. • Mortality/Morbidity: Assessed at least once daily. • Clinical Observations: Recorded once daily (4 hr post-dose on day of treatment), or more often as clinical signs warranted. […]

## O=C(NCCCN(CCCCN(CCCNC(=O)c1cccc(=O)n1O)C(=O)c1cccc(=O)n1O)C(=O)c1cccc(=O)n1O)c1cccc(=O)n1O [3,4,3-L1(1,2-HOPO)]
Animal group B, day 1, female mice
  % Recovered Dose-Female Animals-Feces per Day-Day 7 Necropsy: 9.41%
Animal group B, day 2, female mice
  % Recovered Dose-Female Animals-Feces per Day-Day 7 Necropsy: 8.35%
Animal group B, day 3, female mice
  % Recovered Dose-Female Animals-Feces per Day-Day 7 Necropsy: 2.59%
Animal group B, day 4, female mice
  % Recovered Dose-Female Animals-Feces per Day-Day 7 Necropsy: 1.99%
Animal group B, day 5, female mice
  % Recovered Dose-Female Animals-Feces per Day-Day 7 Necropsy: 2.39%
Animal group B, day 6, female mice
  % Recovered Dose-Female Animals-Feces per Day-Day 7 Necropsy: 2.12%
Animal group B, day 7, female mice
  % Recovered Dose-Female Animals-Feces per Day-Day 7 Necropsy: 1.74%
Animal group C, day 1, female mice, listed as 3,4,3-LI(1,2-HOPO)
  % Recovered Dose-Female Animals-Feces per Day-Day 7 Necropsy: 11.51% and 5.30% and 8.74% and 7.20%
Animal group C, day 2, female mice, listed as 3,4,3-LI(1,2-HOPO)
  % Recovered Dose-Female Animals-Feces per Day-Day 7 Necropsy: 13.77% and 8.33% and 12.44% and 14.41%
Animal group C, day 3, female mice, listed as 3,4,3-LI(1,2-HOPO)
  % Recovered Dose-Female Animals-Feces per Day-Day 7 Necropsy: 4.51% and 3.49% and 4.66% and 4.88%
Animal group C, day 4, female mice, listed as 3,4,3-LI(1,2-HOPO)
  % Recovered Dose-Female Animals-Feces per Day-Day 7 Necropsy: 3.35% and 3.00% and 3.74% and 4.08%
Animal group C, day 5, female mice, listed as 3,4,3-LI(1,2-HOPO)
  % Recovered Dose-Female Animals-Feces per Day-Day 7 Necropsy: 2.71% and 2.82% and 2.30% and 2.85%
Animal group C, day 6, female mice, listed as 3,4,3-LI(1,2-HOPO)
  % Recovered Dose-Female Animals-Feces per Day-Day 7 Necropsy: 2.52% and 2.18% and 2.39% and 3.01%
Animal group C, day 7, female mice, listed as 3,4,3-LI(1,2-HOPO)
  % Recovered Dose-Female Animals-Feces per Day-Day 7 Necropsy: 2.15% and 1.62% and 1.98% and 2.66%
Animal group E, day 1, female mice, listed as 3,4,3-LI(1,2-HOPO)
  % Recovered Dose-Female Animals-Feces per Day-Day 7 Necropsy: 6.10% and 10.77% and 13.26% and 10.08%
Animal group E, day 2, female mice, listed as 3,4,3-LI(1,2-HOPO)
  % Recovered Dose-Female Animals-Feces per Day-Day 7 Necropsy: 8.15% and 10.30% and 9.61% and 15.30%
Animal group E, day 3, female mice, listed as 3,4,3-LI(1,2-HOPO)
  % Recovered Dose-Female Animals-Feces per Day-Day 7 Necropsy: 2.89% and 5.25% and 5.53% and 2.67%
Animal group E, day 4, female mice, listed as 3,4,3-LI(1,2-HOPO)
  % Recovered Dose-Female Animals-Feces per Day-Day 7 Necropsy: 2.76% and 3.97% and 4.52% and 2.90%
Animal group E, day 5, female mice, listed as 3,4,3-LI(1,2-HOPO)
  % Recovered Dose-Female Animals-Feces per Day-Day 7 Necropsy: 1.35% and 1.95% and 2.80% and 2.17%
Animal group E, day 6, female mice, listed as 3,4,3-LI(1,2-HOPO)
  % Recovered Dose-Female Animals-Feces per Day-Day 7 Necropsy: 1.90% and 1.34% and 2.01% and 2.18%
Animal group E, day 7, female mice, listed as 3,4,3-LI(1,2-HOPO)
  % Recovered Dose-Female Animals-Feces per Day-Day 7 Necropsy: 2.23% and 1.29% and 1.91% and 2.16%
Animal group F, day 1, female mice, listed as 3,4,3-LI(1,2-HOPO)
  % Recovered Dose-Female Animals-Feces per Day-Day 7 Necropsy: 9.32% and 9.52% and 7.17% and 5.19%
Animal group F, day 2, female mice, listed as 3,4,3-LI(1,2-HOPO)
  % Recovered Dose-Female Animals-Feces per Day-Day 7 Necropsy: 8.03% and 12.87% and 9.08% and 6.87%
Animal group F, day 3, female mice, listed as 3,4,3-LI(1,2-HOPO)
  % Recovered Dose-Female Animals-Feces per Day-Day 7 Necropsy: 2.78% and 4.30% and 4.68% and 2.63%
Animal group F, day 4, female mice, listed as 3,4,3-LI(1,2-HOPO)
  % Recovered Dose-Female Animals-Feces per Day-Day 7 Necropsy: 2.68% and 3.98% and 3.14% and 2.89%
Animal group F, day 5, female mice, listed as 3,4,3-LI(1,2-HOPO)
  % Recovered Dose-Female Animals-Feces per Day-Day 7 Necropsy: 2.30% and 3.01% and 3.85% and 3.00%
Animal group F, day 6, female mice, listed as 3,4,3-LI(1,2-HOPO)
  % Recovered Dose-Female Animals-Feces per Day-Day 7 Necropsy: 2.40% and 2.04% and 2.26% and 1.91%
Animal group F, day 7, female mice, listed as 3,4,3-LI(1,2-HOPO)
  % Recovered Dose-Female Animals-Feces per Day-Day 7 Necropsy: 1.39% and 1.59% and 2.15% and 2.13%
Day 1, female mice, listed as 3,4,3-LI(1,2-HOPO)
  % Recovered Dose-Female Animals-Urine per Day-Day 11 Necropsy: 9.33% and 10.42% and 5.66% and 9.35% and 11.13% and 9.41% and 6.93% and 9.39%
Day 2, female mice, listed as 3,4,3-LI(1,2-HOPO)
  % Recovered Dose-Female Animals-Urine per Day-Day 11 Necropsy: 3.78% and 5.22% and 5.30% and 4.96% and 5.23% and 5.12% and 3.93% and 5.10%
Day 3, female mice, listed as 3,4,3-LI(1,2-HOPO)
  % Recovered Dose-Female Animals-Urine per Day-Day 11 Necropsy: 4.12% and 4.15% and 6.39% and 5.55% and 5.41% and 4.29% and 3.92% and 3.16%
Day 4, female mice, listed as 3,4,3-LI(1,2-HOPO)
  % Recovered Dose-Female Animals-Urine per Day-Day 11 Necropsy: 2.95% and 3.74% and 4.22% and 3.34% and 3.22% and 4.38% and 2.99% and 5.19%
Day 5, female mice, listed as 3,4,3-LI(1,2-HOPO)
  % Recovered Dose-Female Animals-Urine per Day-Day 11 Necropsy: 3.24% and 2.72% and 3.06% and 2.44% and 3.11% and 2.27% and 1.41% and 2.10%
Day 6, female mice, listed as 3,4,3-LI(1,2-HOPO)
  % Recovered Dose-Female Animals-Urine per Day-Day 11 Necropsy: 1.23% and 2.05% and 2.60% and 1.54% and 1.89% and 1.51% and 0.91% and 1.79%
Day 7, female mice, listed as 3,4,3-LI(1,2-HOPO)
  % Recovered Dose-Female Animals-Urine per Day-Day 11 Necropsy: 1.33% and 1.66% and 2.35% and 1.27% and 1.38% and 1.35% and 1.24% and 1.89%
